The compounds below were run against T1, Delta-5-Desaturase (D5D), membrane preparations of D5D-overexpressing HEK293 6E cells (Homo sapiens, UniProt O60427) (assay: In vitro measurement of Delta-5-Desaturase inhibitory activity using DGLA-CoA and Arachidonyl-CoA mass spectrometric assays). Details: D5D membrane 10 μg/mL, one-hour incubation, average of at least two independent runs.
T1 construct: expressed in transfected cells; host or cells: HEK293 6E cells (membrane preparation)
T1 sequence (O60427 whole entry, species assumed): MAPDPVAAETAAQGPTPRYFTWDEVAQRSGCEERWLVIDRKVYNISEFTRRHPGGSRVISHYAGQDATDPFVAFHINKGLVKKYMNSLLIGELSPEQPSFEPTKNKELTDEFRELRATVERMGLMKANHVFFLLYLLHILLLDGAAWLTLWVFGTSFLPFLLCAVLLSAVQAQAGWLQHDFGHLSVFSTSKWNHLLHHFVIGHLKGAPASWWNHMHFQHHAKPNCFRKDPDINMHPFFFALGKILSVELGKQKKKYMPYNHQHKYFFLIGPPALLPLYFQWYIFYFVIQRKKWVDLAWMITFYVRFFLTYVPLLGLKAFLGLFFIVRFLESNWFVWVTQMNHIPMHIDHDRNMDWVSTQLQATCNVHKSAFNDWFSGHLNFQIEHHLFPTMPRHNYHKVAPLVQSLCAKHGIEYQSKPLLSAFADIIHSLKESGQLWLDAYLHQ
Format: biochemical
Protocol: In Vitro Measurement of Delta-5-Desaturase Inhibitory Activity Using DGLA-CoA and Arachidonyl-CoA Mass Spectrometric Assays Membrane preparations of D5D-overexpressing HEK293 6E cells were prepared in which the total protein concentration was 5.6 mg/mL. Stock D5D membrane preparations were diluted in D5D assay buffer (25 mM 2-amino-2-(hydroxymethyl)-1,3-propanediol, pH 7.5 containing 10 mM MgCl2, 1 mM octyl glucoside (SigmaAldrich O-8001), 1 mM tris(2-carboxyethyl)phosphine hydrochloride (SigmaAldrich 646547)) to a final D5D membrane concentration of 10 μg/mL in an assay plate containing serially diluted test compounds. To 15 μL of this D5D preparation was added 15 μL of a substrate solution (0.25 mM NADH (nicotinamide adenine dinucleotide, Roche Diag. 10107735001), 0.25 mM adenosine triphosphate (SigmaAldrich A-3377), 0.05 mM coenzyme A hydrate (SigmaAldrich C-4282), and 0.01 mM DGLA (dihomo-g-linolenic acid, Sigma E-4504) in the same D5D assay buffer. After one-hour incubation at ambient temperature acetonitrile (30 μL) was added to quench the reaction and plates were centrifuged for 10 min @ 3,000 rpm. Mass spectrometric analysis involved a Rapidfire 360 SPE system coupled to an ABSciex API4000 Triple Quadrupole mass spectrometer using a C18 SPE cartridge (G9203-80105) with ionization in negative mode (solvent A=100% water; solvent B=100% acetonitrile, each solvent containing 5 mM ammonium acetate). DGLA-CoA and Arachidonyl-CoA were detected by multiple reaction monitoring (MRM) of the doubly charged parent ions at m/z 526.6 and 525.6, respectively. […] Sx is value from unknown sample, So is value from DMSO alone and Sc is value from no enzyme well. For CRC analysis, the % of inhibitions were analysed with 4 Parameter Logistic Model or Sigmoidal Dose-Response Model using XLfit (IDBS, Guilford, UK). The potency of the test item was expressed as IC50 nM, corresponding to the test item concentration able to inhibit the 50% of the enzyme maximal response. IC50 values were averaged values determined by at least two independent runs. The results presented in Table 15 have been generated with the in vitro assay described above. This assay may be used to test any of the compounds described herein to assess and characterize a compound's ability to inhibit D5D.
For `Cc1cn2c(=O)c(-c3cnn(CCC(F)(F)F)c3)c(C(F)(F)F)nc2n1C` [Example 53, 1,2-dimethyl-7-(trifluoromethyl)-6-[1-(3,3,3-trifluoropropyl)-1H-pyrazol-4-yl]-1H,5H-imidazo[1,2-a]pyrimidin-5-one], the IC50 was 0.0064 µM.
In the case of `Cc1cn2c(=O)c(-c3ccc(OCC(F)(F)F)cc3)c(C(F)(F)F)nc2n1C` [Example 54, 1,2-dimethyl-6-[4-(2,2,2-trifluoroethoxy)phenyl]-7-(trifluoromethyl)-1H,5H-imidazo[1,2-a]pyrimidin-5-one], the IC50 is reported as 0.0171 µM.
`COCc1cn2c(=O)c(-c3cnn(CC(F)(F)C(F)(F)F)c3)c(C(F)(F)F)nc2n1C` [Example 55, 2-(methoxymethyl)-1-methyl-6-[1-(2,2,3,3,3-pentafluoropropyl)-1H-pyrazol-4-yl]-7-(trifluoromethyl)-1H,5H-imidazo[1,2-a]pyrimidin-5-one] was tested, and the IC50 was 0.21 µM.
With `CCn1c(C)cn2c(=O)c(-c3cnn(CC(F)(F)C(F)(F)F)c3)c(C(F)(F)F)nc12` [Example 56, 1-ethyl-2-methyl-6-[1-(2,2,3,3,3-pentafluoropropyl)-1H-pyrazol-4-yl]-7-(trifluoromethyl)-1H,5H-imidazo[1,2-a]pyrimidin-5-one] the IC50 was 0.0343 µM.
`COCCn1c(C)cn2c(=O)c(-c3cnn(CC(F)(F)C(F)(F)F)c3)c(C(F)(F)F)nc12` [Example 57, 1-(2-methoxyethyl)-2-methyl-6-[1-(2,2,3,3,3-pentafluoropropyl)-1H-pyrazol-4-yl]-7-(trifluoromethyl)-1H,5H-imidazo[1,2-a]pyrimidin-5-one] gave an IC50 of 0.146 µM.
Compound `Cc1cn2c(=O)c(-c3cnn(CC(F)(F)C(F)(F)F)c3)c(C(F)(F)F)nc2n1C(C)C` [Example 58, 2-methyl-6-[1-(2,2,3,3,3-pentafluoropropyl)-1H-pyrazol-4-yl]-1-(propan-2-yl)-7-(trifluoromethyl)-1H,5H-imidazo[1,2-a]pyrimidin-5-one] has an IC50 of 0.0315 µM.
Work on `Cc1cn2c(=O)c(-c3cnn(CC4CC4(F)F)c3)c(C(F)(F)F)nc2n1C` (centres unmarked) [Example 59, 6-{1-[(2,2-difluorocyclopropyl)methyl]-1H-pyrazol-4-yl}-1,2-dimethyl-7-(trifluoromethyl)-1H,5H-imidazo[1,2-a]pyrimidin-5-one] yielded an IC50 of 0.011 µM.
`Cc1cn2c(=O)c(-c3cnn(CC4CC(F)(F)C4)c3)c(C(F)(F)F)nc2n1C` [Example 60, 6-{1-[(3,3-difluorocyclobutyl)methyl]-1H-pyrazol-4-yl}-1,2-dimethyl-7-(trifluoromethyl)-1H,5H-imidazo[1,2-a]pyrimidin-5-one] gave an IC50 of 0.0578 µM.
`Cc1cn2c(=O)c(-c3cnn(CC4CC4)c3)c(C(F)(F)F)nc2n1C` [Example 61, 6-[1-(cyclopropylmethyl)-1H-pyrazol-4-yl]-1,2-dimethyl-7-(trifluoromethyl)-1H,5H-imidazo[1,2-a]pyrimidin-5-one] gave an IC50 of 0.0737 µM.
Compound `Cc1cn2c(=O)c(-c3cnn(CC(F)(F)C(F)(F)F)c3)c(C(F)(F)F)nc2n1CC1CC1` [Example 62, 1-(cyclopropylmethyl)-2-methyl-6-[1-(2,2,3,3,3-pentafluoropropyl)-1H-pyrazol-4-yl]-7-(trifluoromethyl)-1H,5H-imidazo[1,2-a]pyrimidin-5-one] has an IC50 of 0.0029 µM.
`COCc1cn2c(=O)c(-c3cnn(CCC(F)(F)F)c3)c(C(F)(F)F)nc2n1C` [Example 63, 2-(methoxymethyl)-1-methyl-7-(trifluoromethyl)-6-[1-(3,3,3-trifluoropropyl)-1H-pyrazol-4-yl]-1H,5H-imidazo[1,2-a]pyrimidin-5-one] gave an IC50 of 0.16 µM.
`Cc1cn2c(=O)c(-c3cnn(CC(F)(F)C(F)(F)F)c3)c(C(F)(F)F)nc2n1CC(C)O` (centres unmarked) [Example 64, 1-(2-hydroxypropyl)-2-methyl-6-[1-(2,2,3,3,3-pentafluoropropyl)-1H-pyrazol-4-yl]-7-(trifluoromethyl)-1H,5H-imidazo[1,2-a]pyrimidin-5-one] was tested, and the IC50 was 0.239 µM.
`Cc1cn2c(=O)c(-c3cnn(CC4COC4)c3)c(C(F)(F)F)nc2n1C` [Example 65, 1,2-dimethyl-6-{1-[(oxetan-3-yl)methyl]-1H-pyrazol-4-yl}-7-(trifluoromethyl)-1H,5H-imidazo[1,2-a]pyrimidin-5-one] gave an IC50 of 0.815 µM.
With `Cc1cn2c(=O)c(-c3cnn(CCC(F)(F)F)c3)c(C(F)(F)F)nc2n1CC1CC1` [Example 66, 1-(cyclopropylmethyl)-2-methyl-7-(trifluoromethyl)-6-[1-(3,3,3-trifluoropropyl)-1H-pyrazol-4-yl]-1H,5H-imidazo[1,2-a]pyrimidin-5-one] the IC50 was 0.0066 µM.
`Cc1cn2c(=O)c(-c3cnn(CCC(F)(F)F)c3)c(C(F)(F)F)nc2n1CCN(C)C` [Example 67, 1-[2-(dimethylamino)ethyl]-2-methyl-7-(trifluoromethyl)-6-[1-(3,3,3-trifluoropropyl)-1H-pyrazol-4-yl]-1H,5H-imidazo[1,2-a]pyrimidin-5-one] showed an IC50 of 1.48 µM.
`Cc1cn2c(=O)c(-c3ccc(OCC(F)(F)F)cc3)c(C(F)(F)F)nc2n1CC1CC1` [Example 68, 1-(cyclopropylmethyl)-2-methyl-6-[4-(2,2,2-trifluoroethoxy)phenyl]-7-(trifluoromethyl)-1H,5H-imidazo[1,2-a]pyrimidin-5-one] showed an IC50 of 0.356 µM.
`Cc1cn2c(=O)c(-c3ccc(OCC(F)(F)F)cc3)c(C(F)(F)F)nc2n1CCN(C)C` [Example 69, 1-[2-(dimethylamino)ethyl]-2-methyl-6-[4-(2,2,2-trifluoroethoxy)phenyl]-7-(trifluoromethyl)-1H,5H-imidazo[1,2-a]pyrimidin-5-one] showed an IC50 of 13.5 µM.
With `Cc1cn2c(=O)c(-c3ccn(CC(F)(F)C(F)(F)F)n3)c(C(F)(F)F)nc2n1C` [Example 70, 1,2-dimethyl-6-[1-(2,2,3,3,3-pentafluoropropyl)-1H-pyrazol-3-yl]-7-(trifluoromethyl)-1H,5H-imidazo[1,2-a]pyrimidin-5-one] the IC50 was 5.15 µM.
`COc1cn2c(=O)c(-c3cnn(CC(F)(F)C(F)(F)F)c3)c(C(F)(F)F)nc2n1C` [Example 71, 2-methoxy-1-methyl-6-[1-(2,2,3,3,3-pentafluoropropyl)-1H-pyrazol-4-yl]-7-(trifluoromethyl)-1H,5H-imidazo[1,2-a]pyrimidin-5-one] was tested, and the IC50 was 0.0328 µM.
For `COc1cn2c(=O)c(-c3cnn(CCC(F)(F)F)c3)c(C(F)(F)F)nc2n1C` [Example 72, 2-methoxy-1-methyl-7-(trifluoromethyl)-6-[1-(3,3,3-trifluoropropyl)-1H-pyrazol-4-yl]-1H,5H-imidazo[1,2-a]pyrimidin-5-one], the IC50 was 0.135 µM.
With `Cc1cn2c(=O)c(-c3cnn(CC(F)(F)C(F)(F)F)c3)c(C(F)(F)F)nc2[nH]1` [Example 73, 2-methyl-6-[1-(2,2,3,3,3-pentafluoropropyl)-1H-pyrazol-4-yl]-7-(trifluoromethyl)-1H,5H-imidazo[1,2-a]pyrimidin-5-one] the IC50 was 0.0357 µM.
For `Cc1cn2c(=O)c(-c3cnn(CCC(F)(F)F)c3)c(C(F)(F)F)nc2[nH]1` [Example 74, 2-methyl-7-(trifluoromethyl)-6-[1-(3,3,3-trifluoropropyl)-1H-pyrazol-4-yl]-1H,5H-imidazo[1,2-a]pyrimidin-5-one], the IC50 was 0.0047 µM.
With `Cc1cn2c(=O)c(-c3ccc(OCC(F)(F)F)cc3)c(C(F)(F)F)nc2[nH]1` [Example 75, 2-methyl-6-[4-(2,2,2-trifluoroethoxy)phenyl]-7-(trifluoromethyl)-1H,5H-imidazo[1,2-a]pyrimidin-5-one] the IC50 was 0.0063 µM.
Work on `[2H]C([2H])([2H])n1c(C)cn2c(=O)c(-c3cnn(CC(F)(F)C(F)(F)F)c3)c(C(F)(F)F)nc12` [Example 77, 1-(2H3)methyl-2-methyl-6-[1-(2,2,3,3,3-pentafluoropropyl)-1H-pyrazol-4-yl]-7-(trifluoromethyl)-1H,5H-imidazo[1,2-a]pyrimidin-5-one] yielded an IC50 of 0.024 µM.
Compound `[2H]C([2H])([2H])n1c(C)cn2c(=O)c(-c3cnn(CCC(F)(F)F)c3)c(C(F)(F)F)nc12` [Example 78, 1-(^2H3)methyl-2-methyl-7-(trifluoromethyl)-6-[1-(3,3,3-trifluoropropyl)-1H-pyrazol-4-yl]-1H,5H-imidazo[1,2-a]pyrimidin-5-one] has an IC50 of 0.028 µM.
`Cc1cn2c(=O)c(-c3cnn(CC(F)(F)C(F)(F)F)c3)c(C(F)(F)F)nc2n1CCO` [Example 79, 1-(2-hydroxyethyl)-2-methyl-6-[1-(2,2,3,3,3-pentafluoropropyl)-1H-pyrazol-4-yl]-7-(trifluoromethyl)-1H,5H-imidazo[1,2-a]pyrimidin-5-one] was tested, and the IC50 was 0.0117 µM.

Reference: patent US11512097B2, “Heterocyclic compounds as Delta-5 desaturase inhibitors and methods of use” (Amgen Inc., priority 2019, dated 2022)
